Entries after “also recorded” stand apart in the source; their conditions may differ. Read-outs that look alike come from different tables or passages of the source.
What was measured:
ER [1] = experiment: ToxCast ER assays and final ToxCast call; settings: for Final "true" call (ToxCast) ER: from active ToxCast assays, cytotoxicity, ToxCast Pathway Model and CERAPP Potency Level; for ToxCast result (ER): overall call from ToxCast data (Supplementary Table 2)
Excerpt: A rich source of data can be found in the EPA's ToxCast database (US EPA). This contains ED data for ~ 1800 chemicals in more than 700 high-throughput assay endpoints that cover a range of high-level cell responses. The US EPA is running an Endocrine Disruption Screening Program (EDSP), with the aim of prioritising chemicals using high-throughput screening methods and computational toxicology approaches to evaluate thousands of chemicals for ED activities. The OECD framework for ED assessment (OECD [2018]) requires animal testing at higher levels, where relevant in vitro alternatives are missing e.g. for developmental, reproductive, neurological and immune effects. However, such follow-up testing is not possible for the cosmetics industry especially in the EU due to the complete animal testing ban which came into force in March 2013 (EU [2009]). Even for other industries, animal models are not suitable for assessing ED effects due to issues relating to ethics, capacity, speed and relevance (Patisaul et al. [2018]). Therefore, chemicals which cannot be evaluated using in vivo method must be assessed using alternative methods e.g. in silico and in vitro methods listed in Levels 1 and 2 of the framework described in the OECD 150 test guideline (OECD [2018]).
The performance of different in silico models for ED effects tends to be evaluated on single model for a single effect, such as ER or AR binding, agonism or antagonism (normally by the developer), or a limited number of models using multiple chemicals (Weyrich et al. [2022]). Multi-organisation collaborations have also evaluated multiple models for a specific effect e.g. ER (Mansouri et al. [2016]) and AR (Mansouri et al. [2020]) effects. Therefore, we have conducted a side-by-side comparison of multiple different in silico models covering three pathways in ED, namely ER, AR and aromatase inhibition and compared these with ToxCast-derived final calls, as well as with results from in vitro assays. The efficiency of the in silico models was evaluated as a metric for the ability of the in silico model to generate concrete predictions. […] In vivo data were available for some but not all chemicals; therefore, an evaluation of the performance of the methods was made by comparing the derived overall calls from in silico models with those from the ToxCast database. The final call for each chemical evaluated in the ToxCast assays was made by considering the active-flagged assays and the corresponding cytotoxicity levels, the ToxCast Pathway Model (Browne et al. [2015]) and the CERAPP Potency Level (Mansouri et al. [2016]) for ER effects and the ToxCast Pathway Model (Kleinstreuer et al. [2017]) for AR effects (see Online Resource 1 Supplementary Tables 2, 4 and 6 for the outcome of the ER, AR and aromatase ToxCast assays, additional literature and final calls for each chemical and target).

ER [2] = test system: ER; set-up: method as in US EPA ToxCast; settings: ref US EPA ToxCast, cited from earlier work; for ToxCast 1: (Active assays), ER assay listed as active: each listed assay name = active-flagged assay
AR [3] = test system: AR; set-up: method as in ToxCast; settings: ref ToxCast, cited from earlier work; for ToxCast conclusion from assays result: AR sheet; for ToxCast 1: (Active assays), number of positive assays / assays run: ToxCast AR assays
aromatase = test system: aromatase; set-up: method as in US EPA ToxCast; settings: ref US EPA ToxCast, cited from earlier work; for ToxCast (assays Comments), efficacy: borderline: less than 50% efficacy
AR [4] = biological target: T1, AR (Homo sapiens, UniProt P10275); experiment: (anti-)AR CALUX receptor transactivation assay; format: cell-based; set-up: expressed in transfected cells; host or cells: CALUX cells (U2-OS is named only for the cytotoxicity CALUX)
T1 sequence (P10275 1-920): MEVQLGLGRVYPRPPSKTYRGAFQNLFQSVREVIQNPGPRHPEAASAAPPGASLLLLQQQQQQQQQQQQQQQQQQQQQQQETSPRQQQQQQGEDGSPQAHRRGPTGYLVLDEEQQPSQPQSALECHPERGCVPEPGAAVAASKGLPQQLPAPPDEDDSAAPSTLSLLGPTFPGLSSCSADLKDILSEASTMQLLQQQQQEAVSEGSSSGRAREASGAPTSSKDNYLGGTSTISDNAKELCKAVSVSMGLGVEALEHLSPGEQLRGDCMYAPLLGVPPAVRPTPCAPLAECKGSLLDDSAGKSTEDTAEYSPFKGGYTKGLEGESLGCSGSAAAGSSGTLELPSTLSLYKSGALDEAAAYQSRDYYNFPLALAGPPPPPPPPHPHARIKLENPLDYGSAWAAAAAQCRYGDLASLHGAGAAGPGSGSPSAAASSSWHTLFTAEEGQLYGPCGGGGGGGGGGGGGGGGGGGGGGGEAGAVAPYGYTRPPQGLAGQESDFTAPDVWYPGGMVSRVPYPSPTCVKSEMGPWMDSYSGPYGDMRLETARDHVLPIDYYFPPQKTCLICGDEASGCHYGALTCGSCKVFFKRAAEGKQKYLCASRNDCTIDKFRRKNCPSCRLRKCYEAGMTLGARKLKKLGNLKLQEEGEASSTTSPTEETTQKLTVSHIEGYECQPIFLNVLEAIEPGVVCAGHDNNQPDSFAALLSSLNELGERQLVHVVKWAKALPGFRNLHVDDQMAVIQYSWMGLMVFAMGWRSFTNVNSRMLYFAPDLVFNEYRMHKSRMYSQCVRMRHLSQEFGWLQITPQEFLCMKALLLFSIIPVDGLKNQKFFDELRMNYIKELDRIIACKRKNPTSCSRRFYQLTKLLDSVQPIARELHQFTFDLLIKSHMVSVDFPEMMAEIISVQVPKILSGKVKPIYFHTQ
Experimental: The human CALUX® assays were used to measure the impact of test compounds on estrogen and androgen pathways. […] Chemicals can activate (or inactivate, in the case of an antagonistic activity) a ligand-specific pathway by binding to the receptor (ER, AR), after which the receptor-ligand complex binds to specific DNA REs […], resulting in increased (or decreased) cellular expression of a marker protein (e.g., luciferase).
Chemicals were dissolved and diluted in DMSO. […] The cytotoxicity of each test chemical was assessed using the U2-OS based cytotoxicity CALUX bioassay. Concentrations causing >20% reduction of luminescence were considered cytotoxic. […] Luciferase production was quantified by measuring luminescence following addition of luciferin. For antagonist assays, a fixed concentration of receptor agonist was co-incubated with a range of concentrations of the test chemical. […] For the AR assays, dihydrotestosterone was the positive control for agonistic effects and flutamide was the positive control for antagonist effects.
Each test chemical was tested in triplicates in two independent experiments.

human (non-selective) ER = experiment: ER radioligand ([3H]estradiol) receptor-binding assay; settings: for inhibition of control specific binding to the ER: single-dose screening, 10 µM
Experimental: The chemicals were tested for their ability to bind to different targets. […] Chemicals were incubated at 10 µM with cells overexpressing ER or AR for 24 h at 4°C, after which, the binding of the radiolabeled ligand ([^3H]estradiol for ER and [^3H]methyltrienolone for AR) was measured by liquid scintillation counting. An increase or decrease higher than 50% were considered to represent significant effects. Four chemicals were tested in additional incubations at several concentrations up to the maximum soluble concentration for IC50 or EC50 determination for the associated target. Receptor binding was calculated as a % inhibition of the binding of a radioactively labeled ligand specific for each target.
Each test chemical was tested in a single assay in duplicate.

Row | SMILES | Final "true" call (ToxCast) ER (ER [1]) | ToxCast result (ER) (ER [1]) | ToxCast 1: (Active assays), positive/total ER assays (ER [2]) | ToxCast conclusion from assays result (ER [2]) | ToxCast conclusion from assays result (AR [3]) | ToxCast (Aromatase assays), positive/total (aromatase) | ToxCast 1: (Active assays), number of positive assays / assays run (AR [3]) | outcome in the AR transactivation assay (AR [4]) | inhibition of control specific binding to the ER (human (non-selective) ER) | also measured
1 | CC(C)(C)CC(C)(C)c1ccc(O)cc1 [4-TO, 4-tert-octylphenol] | Positive for agonism | ER agonist only | 20/21 positive | Endocrine Disruption Potential.Significant Estrogen Receptor activity seen | Endocrine Disruption Potential.Significant Estrogen Receptor activity seen | 2/2 positive | – | – | – | ToxCast (assays Comments), efficacy (aromatase): 31.35%; ToxCast (assays Comments), efficacy (aromatase; listed as 4-tert-Octylphenol): Boarderline: less than 50% efficacy (31.35%); ToxCast (Aromatase assays), assay listed as active (aromatase; each listed assay name = active assay): TOX21_Aromatase_Inhibition; also recorded: TOX21_Aromatase_Inhibition_viability; LEC, AR antagonism (AR [4]): 0.44 µM
2 | CCCCN(CCCC)c1ccc(C(=O)c2ccccc2C(=O)O)c(O)c1 [DBABA, 2-[4-(dibutylamino)-2-hydroxybenzoyl]benzoic acid] | Inconclusive | – | 2/6 positive | Endocrine Disruption Potential.Significant Estrogen Receptor activity seen | Endocrine Disruption Potential.Significant Estrogen Receptor activity seen | 0/2 positive | 2/8 positive | negative | – | ToxCast 1: (Active assays), ER assay listed as active (ER [2]; assay TOX21_ERa_BLA_Antagonist_ratio): TOX21_ERa_BLA_Antagonist_ratio; ToxCast 1: (Active assays), ER assay listed as active (ER [2]; assay TOX21_ERa_BLA_Antagonist_viability): TOX21_ERa_BLA_Antagonist_viability; ToxCast 1: (assays Comments) (AR [3]; TOX21_AR_BLA_Antagonist_ratio): Only highest concentration above the baseline; efficacy (assays Comments) (AR [3]; TOX21_AR_BLA_Antagonist_viability): Boarderline: less than 50% efficacy (26.5%)
3 | O=c1c(-c2ccc(O)cc2)coc2cc(O)ccc12 [Daidzein, daidzein] | Positive for agonism and antagonism | ER agonist and antagonist | – | Endocrine Disruption Potential.Significant Estrogen Receptor activity seen | Endocrine Disruption Potential.Significant Estrogen Receptor activity seen | 0/2 positive | 2/15 positive | negative | more than 50% | efficacy (assays Comments) (AR [3]; TOX21_AR_LUC_MDAKB2_Agonist): Boarderline: less than 50% efficacy (20.8%)
4 | C[C@]12CCC(=O)C[C@@H]1CC[C@@H]1[C@@H]2CC[C@@]2(C)[C@H]1CC[C@]2(C)O [Mestanolone, mestanolone, reference compound] | Positive for agonism and antagonism | ER agonist and antagonist | 2/6 positive | Endocrine Disruption Potential.Significant Estrogen Receptor activity seen | Endocrine Disruption Potential.Significant Estrogen Receptor activity seen | 0/2 positive | 2/6 positive | – | more than 50% | ER binding outcome (human (non-selective) ER): confirmed to bind to the ER; IC50 (human (non-selective) ER; follow-up dose–response assay): 1600 nM; Ki (human (non-selective) ER; follow-up dose–response assay): 520 nM; ToxCast 1: (Comments) (ER [2]; for the assay named in the same line): High active; ToxCast 1: (assays Comments) (AR [3]; TOX21_AR_BLA_Agonist_ratio): High active; ToxCast 1: (assays Comments) (AR [3]; TOX21_AR_LUC_MDAKB2_Agonist): High active
